This passage reports Ki results from patent US8232406B2, “c-MET protein kinase inhibitors” (Vertex Pharmaceuticals Incorporated, priority 2006, dated 2012).

Chain of c-MET (P08581 25-1390): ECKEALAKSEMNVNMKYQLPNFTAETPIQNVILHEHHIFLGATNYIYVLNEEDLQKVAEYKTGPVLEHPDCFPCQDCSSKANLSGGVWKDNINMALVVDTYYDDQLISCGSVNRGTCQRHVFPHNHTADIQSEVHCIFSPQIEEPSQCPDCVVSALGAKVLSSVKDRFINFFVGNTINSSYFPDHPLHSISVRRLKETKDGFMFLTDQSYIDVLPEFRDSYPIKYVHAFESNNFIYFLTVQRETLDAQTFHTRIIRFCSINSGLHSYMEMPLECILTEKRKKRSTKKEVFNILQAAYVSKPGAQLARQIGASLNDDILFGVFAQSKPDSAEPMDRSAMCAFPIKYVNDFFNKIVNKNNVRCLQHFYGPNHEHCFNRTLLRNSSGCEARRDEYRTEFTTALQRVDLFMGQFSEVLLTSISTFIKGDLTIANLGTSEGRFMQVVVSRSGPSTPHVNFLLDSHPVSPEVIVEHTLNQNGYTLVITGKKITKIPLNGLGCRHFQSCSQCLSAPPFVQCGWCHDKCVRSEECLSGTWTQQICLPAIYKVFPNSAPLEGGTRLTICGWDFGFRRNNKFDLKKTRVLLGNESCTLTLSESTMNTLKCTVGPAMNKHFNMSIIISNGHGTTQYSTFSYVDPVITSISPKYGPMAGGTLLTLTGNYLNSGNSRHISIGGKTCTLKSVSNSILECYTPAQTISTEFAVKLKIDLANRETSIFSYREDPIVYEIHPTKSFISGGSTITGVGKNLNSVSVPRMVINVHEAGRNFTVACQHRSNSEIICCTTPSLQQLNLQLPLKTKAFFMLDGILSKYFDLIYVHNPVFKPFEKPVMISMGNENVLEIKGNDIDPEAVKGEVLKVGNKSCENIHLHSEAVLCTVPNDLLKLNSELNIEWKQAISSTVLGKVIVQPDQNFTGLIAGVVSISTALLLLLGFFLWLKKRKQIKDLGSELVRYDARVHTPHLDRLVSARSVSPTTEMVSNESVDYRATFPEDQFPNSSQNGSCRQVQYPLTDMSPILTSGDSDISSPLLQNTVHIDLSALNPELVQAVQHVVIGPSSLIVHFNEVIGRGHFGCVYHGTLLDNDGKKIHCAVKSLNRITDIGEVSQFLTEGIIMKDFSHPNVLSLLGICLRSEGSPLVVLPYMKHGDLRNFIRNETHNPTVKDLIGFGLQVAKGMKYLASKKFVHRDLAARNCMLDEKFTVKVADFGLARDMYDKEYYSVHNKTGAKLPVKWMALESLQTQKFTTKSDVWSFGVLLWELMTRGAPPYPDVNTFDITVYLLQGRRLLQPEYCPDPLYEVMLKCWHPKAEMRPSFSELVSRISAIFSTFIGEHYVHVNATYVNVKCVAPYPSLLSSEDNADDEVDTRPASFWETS

The target of this assay is c-MET (Homo sapiens, UniProt P08581). In words: Ki determination for the inhibition of c-MET (standard radiometric 33P-ATP kinase assay, polyE4Y substrate). The assay is classed as biochemical. The following applies: 1.0 nM c-Met, 35 μM ATP, 0.5 mg/mL polyE4Y, 20 min; competitive tight-binding fit. The gist of the method:
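Ki obtained by fitting data to competitive tight-binding inhibition kinetics. c-Met at 1.0 nM phosphorylated polyE4Y (0.5 mg/mL) with 35 μM 33P-ATP for 20 min in pH 7.5 HEPES buffer with MgCl2, NaCl, BSA and DTT. Incorporated label measured by scintillation after TCA precipitation on filters.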
Take `Nc1ncc(-c2cnn(C3CCCNCC3)c2)cc1-c1nnnn1-c1cccc(Cl)c1Cl` (stereo not shown) [I-A-429]: the Ki is not above 100 nM.

For the compound `Nc1ncc(-c2cc3c(s2)CCNCC3)cc1-c1nnnn1-c1cccc(F)c1F` [I-A-430, 3-(1-(2,3-Difluorophenyl)-1H-tetrazol-5-yl)-5-(5,6,7,8-tetrahydro-4H-thieno[3,2-d]azepin-2-yl)pyridin-2-amine], the Ki is not above 100 nM.

`Nc1ncc(-c2cc3c(s2)CCNCC3)cc1-c1nnnn1-c1cccc(Cl)c1Cl` [I-A-431] registered a Ki not above 100 nM.

In the case of `Nc1ncc(-c2cnn(C3COCOC3)c2)cc1-c1nnnn1-c1cccc(F)c1F` [I-A-432], the Ki is not above 100 nM.

With `Nc1ncc(-c2cnn(CC3COCO3)c2)cc1-c1nnnn1-c1cccc(F)c1F` (stereo not shown) [I-A-433], the Ki is not above 100 nM.

For `CN1CCC(n2cc(-c3cnc(N)c(-c4nnnn4-c4cccc(F)c4F)c3)cn2)CC1` [I-A-434], the Ki is not above 100 nM.

`CCN1CCC(n2cc(-c3cnc(N)c(-c4nnnn4-c4cccc(F)c4F)c3)cn2)CC1` [I-A-435] came in with a Ki not above 100 nM.

Turning to `CN1CCC(n2cc(-c3cnc(N)c(-c4nnnn4-c4cccc(Cl)c4F)c3)cn2)CC1` [I-A-436], the Ki was not above 100 nM.

The compound `Nc1ncc(-c2cnn(C3CCNCC3)c2)cc1-c1nncn1-c1cccc(Cl)c1F` [I-A-438] gave a Ki not above 100 nM.

`Nc1ncc(-c2cn[nH]c2)cc1-c1nncn1-c1cccc(Cl)c1F` [I-A-439] returned a Ki of 100 to 1000 nM.

Compound `COCCOC(=O)N1CCC(n2cc(-c3cnc(N)c(-c4nnnn4-c4cccc(Cl)c4F)c3)cn2)CC1` [I-A-440] had a Ki not above 100 nM.

Turning to `CC(C)C(=O)N1CCC(n2cc(-c3cnc(N)c(-c4nnnn4-c4cccc(Cl)c4F)c3)cn2)CC1` [I-A-441], the inhibitory constant (Ki) is not above 100 nM.

The compound `CN(C)S(=O)(=O)N1CCC(n2cc(-c3cnc(N)c(-c4nnnn4-c4cccc(Cl)c4F)c3)cn2)CC1` [I-A-442] registered a Ki not above 100 nM.

The compound `Nc1ncc(-c2cnn(C3CCN(C(=O)N4CCCC4)CC3)c2)cc1-c1nnnn1-c1cccc(Cl)c1F` [I-A-443] yielded a Ki not above 100 nM.

With `CN(C)CC(=O)N1CCC(n2cc(-c3cnc(N)c(-c4nnnn4-c4cccc(Cl)c4F)c3)cn2)CC1` [I-A-444], the Ki was not above 100 nM.

In turn, `CN(C)C(=O)N1CCC(n2cc(-c3cnc(N)c(-c4nnnn4-c4cccc(Cl)c4F)c3)cn2)CC1` [I-A-445] had a Ki not above 100 nM.

Regarding `CCCS(=O)(=O)N1CCC(n2cc(-c3cnc(N)c(-c4nnnn4-c4cccc(Cl)c4F)c3)cn2)CC1` [I-A-446], the Ki is not above 100 nM.

Take `Nc1ncc(-c2cnn(C3CCN(C(=O)CO)CC3)c2)cc1-c1nnnn1-c1cccc(Cl)c1F` [I-A-447]: the Ki was not above 100 nM.

For the compound `CC(C)N1CCC(n2cc(-c3cnc(N)c(-c4nnnn4-c4cccc(F)c4F)c3)cn2)CC1` [I-A-448], the Ki is not above 100 nM.

As to `Nc1ncc(-c2cnn(C3CCN(CC4CC4)CC3)c2)cc1-c1nnnn1-c1cccc(F)c1F` [I-A-449], the inhibitory constant (Ki) is not above 100 nM.

`CC(=O)N1CCC(n2cc(-c3cnc(N)c(-c4nncn4-c4cccc(Cl)c4F)c3)cn2)CC1` [I-A-450] returned a Ki not above 100 nM.

In turn, `Nc1ncc(-c2cnn(C3CCN(C4CCC4)CC3)c2)cc1-c1nnnn1-c1cccc(F)c1F` [I-A-451] had a Ki not above 100 nM.

Consider `Nc1ncc(-c2cnn(C3CCN(CCF)CC3)c2)cc1-c1nnnn1-c1cccc(F)c1F` [I-A-452], for which the Ki is not above 100 nM.

Turning to `Nc1ncc(-c2cnn(C3CCN(CC(F)F)CC3)c2)cc1-c1nnnn1-c1cccc(F)c1F` [I-A-453], the Ki is not above 100 nM.

Turning to `Cc1nnc(-c2cc(-c3cnn(C4CCNCC4)c3)cnc2N)n1-c1cccc(Cl)c1F` [I-A-454], the Ki lay within 100 to 1000 nM.

`CC(=O)N1CCC(n2cc(-c3cnc(N)c(-c4nnnn4-c4cccc(F)c4F)c3)cn2)CC1` [I-A-455] registered a Ki not above 100 nM.

For `Nc1ncc(-c2ccc3c(c2)CNCC3)cc1-c1nnnn1-c1cccc(F)c1F` [I-A-456], the Ki is not above 100 nM.

`CC(=O)N1CCC(n2cc(-c3cnc(N)c(-c4nnc(C)n4-c4cccc(Cl)c4F)c3)cn2)CC1` [I-A-457] returned a Ki not above 100 nM.

Regarding `CCN1CCC(n2cc(-c3cnc(N)c(-c4nncn4-c4cccc(Cl)c4F)c3)cn2)CC1` [I-A-458], the Ki was not above 100 nM.

With `Nc1ncc(-c2cnn(C3CCN(CCF)CC3)c2)cc1-c1nncn1-c1cccc(Cl)c1F` [I-A-459], the Ki was not above 100 nM.

Regarding `Nc1ncc(-c2cnn(C3CCN(CC(F)F)CC3)c2)cc1-c1nncn1-c1cccc(Cl)c1F` [I-A-460], the inhibitory constant (Ki) is not above 100 nM.

Regarding `CCCN1CCC(n2cc(-c3cnc(N)c(-c4nnnn4-c4cccc(F)c4F)c3)cn2)CC1` [I-A-461], the Ki is not above 100 nM.

As for `N#CCN1CCC(n2cc(-c3cnc(N)c(-c4nnnn4-c4cccc(F)c4F)c3)cn2)CC1` [I-A-462], the Ki was not above 100 nM.

`Nc1ncc(-c2csc(C3CCNCC3)c2)cc1-c1nnnn1-c1cccc(F)c1F` [I-A-463] yielded a Ki not above 100 nM.

`Nc1ncc(-c2ccn(C3CCNCC3)c2)cc1-c1nnnn1-c1cccc(F)c1F` [I-A-464] had a Ki not above 100 nM.

`Nc1ncc(-c2nc3c(s2)CNCC3)cc1-c1nnnn1-c1cccc(F)c1F` [I-A-465]: the Ki fell in the range of 100 to 1000 nM.

With `Nc1ncc(-c2ccn(CCN3CCCC3)c2)cc1-c1nnnn1-c1cccc(F)c1F` [I-A-466], the Ki was not above 100 nM.

As for `Nc1ncc(-c2nc3c(s2)CNCC3)cc1-c1nnnn1-c1cccc(Cl)c1Cl` [I-A-467], the Ki was in the range of 100 to 1000 nM.

`Nc1ncc(-c2cnn(C3CCNCC3)c2)nc1-c1nnnn1-c1cccc(F)c1F` [I-A-468]: the Ki was not above 100 nM.

Compound `Nc1ncc(-c2cnn(C3CCN(CCO)CC3)c2)cc1-c1nnnn1-c1cccc(Cl)c1F` [I-A-469] showed a Ki not above 100 nM.

`CCCN1CCC(n2cc(-c3cnc(N)c(-c4nnnn4-c4cccc(Cl)c4F)c3)cn2)CC1` [I-A-470] showed a Ki not above 100 nM.

Turning to `CC(C)N1CCC(n2cc(-c3cnc(N)c(-c4nncn4-c4cccc(Cl)c4F)c3)cn2)CC1` [I-A-471], the Ki is not above 100 nM.

`Nc1ncc(-c2cnn(C3CCN(CC4CC4)CC3)c2)cc1-c1nnnn1-c1cccc(Cl)c1F` [I-A-472] displayed a Ki not above 100 nM.

`Nc1ncc(-c2cnn(C3CCN(CC4CCC4)CC3)c2)cc1-c1nnnn1-c1cccc(Cl)c1F` [I-A-473] showed a Ki not above 100 nM.

For the compound `Nc1ncc(-c2cnn(C3CCN(CC4CCCC4)CC3)c2)cc1-c1nnnn1-c1cccc(Cl)c1F` [I-A-474], the Ki was not above 100 nM.

Compound `CC(C)CN1CCC(n2cc(-c3cnc(N)c(-c4nnnn4-c4cccc(Cl)c4F)c3)cn2)CC1` [I-A-475] displayed an inhibition constant (Ki) not above 100 nM.

The compound `COCCN1CCC(n2cc(-c3cnc(N)c(-c4nncn4-c4cccc(F)c4F)c3)cn2)CC1` [I-A-476] yielded a Ki not above 100 nM.

Compound `COCCN1CCC(n2cc(-c3cnc(N)c(-c4nnnn4-c4cccc(Cl)c4F)c3)cn2)CC1` [I-A-477] returned a Ki not above 100 nM.

`Cc1nn(C2CCNCC2)c(C)c1-c1cnc(N)c(-c2nnnn2-c2cccc(F)c2F)c1` [I-A-478] registered an inhibitory constant (Ki) of 100 to 1000 nM.

`Cc1nn(C2CCNCC2)c(C)c1-c1cnc(N)c(-c2nnnn2-c2cccc(Cl)c2F)c1` [I-A-479] had a Ki of 100 to 1000 nM.

In turn, `CCOC(=O)N1CCc2cc(-c3cnc(N)c(-c4nnnn4-c4cccc(F)c4F)c3)sc2CC1` [I-A-480] yielded a Ki not above 100 nM.

Compound `Nc1ncc(-c2cc3c(s2)CCNCC3)cc1-c1nnnn1-c1cccc(Cl)c1F` [I-A-481] displayed an inhibition constant Ki not above 100 nM.

`CCCN1CCC(n2cc(-c3cnc(N)c(-c4nnnn4-c4cccc(F)c4F)c3)nn2)CC1` [I-A-482] displayed a Ki not above 100 nM.

Consider `Nc1ncc(-c2cn(C3CCNCC3)nn2)cc1-c1nnnn1-c1cccc(F)c1F` [I-A-483, 3-(1-(2,3-Difluorophenyl)-1H-tetrazol-5-yl)-5-(1-(piperidin-4-yl)-1H-1,2,3-triazol-4-yl)pyridin-2-amine], for which the Ki is not above 100 nM.

`CN1C2CCC1CC(n1cc(-c3cnc(N)c(-c4nnnn4-c4cccc(F)c4F)c3)nn1)C2` (stereo not shown) [I-A-484] registered a Ki not above 100 nM.

In the case of `Nc1ncc(-c2cn(C3CCOCC3)nn2)cc1-c1nnnn1-c1cccc(F)c1F` [I-A-485], the Ki is not above 100 nM.

In the case of `Nc1ncc(-c2cccs2)cc1-c1nnnn1-c1cccc(F)c1F` [I-A-487], the inhibition constant Ki was not above 100 nM.

With `Nc1ncc(-c2ccco2)cc1-c1nnnn1-c1cccc(F)c1F` [I-A-488], the Ki lay within 100 to 1000 nM.

Consider `Nc1ncc(-c2ccncc2)cc1-c1nnnn1-c1cccc(F)c1F` [I-A-490], for which the Ki lay in the range of 100 to 1000 nM.

`Nc1ncc(-c2cnc(C3CCNCC3)s2)cc1-c1nnnn1-c1cccc(Cl)c1F` [I-A-491] showed an inhibition constant (Ki) not above 100 nM.

In turn, `Nc1ncc(-c2cc3c(s2)CNCC3)cc1-c1nnnn1-c1cccc(F)c1F` [I-A-492, 3-(1-(2,3-Difluorophenyl)-1H-tetrazol-5-yl)-5-(4,5,6,7-tetrahydrothieno[2,3-c]pyridin-2-yl)pyridin-2-amine] returned a Ki not above 100 nM.

Take `Nc1ncc(-c2ccccn2)cc1-c1nnnn1-c1cccc(F)c1F` [I-A-493]: the Ki was 100 to 1000 nM.

Turning to `Cc1nnc(-c2cnc(N)c(-c3nnnn3-c3cccc(F)c3F)c2)s1` [I-A-494], the Ki is 100 to 1000 nM.

Take `Cn1cnc(-c2cnc(N)c(-c3nnnn3-c3cccc(F)c3F)c2)c1` [I-A-495]: the Ki lay within 100 to 1000 nM.

In turn, `Cn1cncc1-c1cnc(N)c(-c2nnnn2-c2cccc(F)c2F)c1` [I-A-496] registered a Ki of 100 to 1000 nM.

The compound `Nc1ncc(-c2ccoc2)cc1-c1nnnn1-c1cccc(F)c1F` [I-A-497] came in with an inhibitory constant (Ki) not above 100 nM.

`CCN1CCC[C@@H](n2cc(-c3cnc(N)c(-c4nnnn4-c4cccc(Cl)c4Cl)c3)cn2)C1` [I-A-499]: the Ki was not above 100 nM.

`Nc1ncc(-c2cnn(C[C@@H]3CCCN3)c2)cc1-c1nnnn1-c1cccc(F)c1F` [I-A-500] gave a Ki not above 100 nM.

Consider `Nc1ncc(-c2cnn(CC3CCNC3)c2)cc1-c1nnnn1-c1cccc(F)c1F` (stereo not shown) [I-A-501], for which the Ki was not above 100 nM.

In turn, `Nc1ncc(-c2cnn(CC3CCNCC3)c2)cc1-c1nnnn1-c1cccc(F)c1F` [I-A-502] had a Ki not above 100 nM.

As usually defined, the Ki is the dissociation constant of the complex between target and ligand, obtained from inhibition or displacement. A higher Ki goes with lower affinity.
